Data from US20240166635A1, “AMINOHETEROARYL KINASE INHIBITORS” (Anrui Biomedical Technology (Guangzhou) Co.,Ltd., priority 2020, published 2024).

Experiments:
Format in all cases: biochemical
CDK2/CyclinE1 = CDK2/CyclinE1 (Homo sapiens (Human), UniProt P24941); experiment: CDK2/CyclinE1 kinase inhibitory activity (Caliper mobility shift); settings: read-out: CDK2/Cyclin El IC50
CDK7/CyclinH/MAT1 = CDK7/CyclinH/MAT1 (Homo sapiens (Human), UniProt P50613); experiment: CDK7/CyclinH/MAT1 kinase inhibitory activity (Caliper mobility shift)
CDK4/Cyclin D1 = CDK4/Cyclin D1 (Homo sapiens (Human), UniProt P11802); experiment: CDK4/CyclinD1 kinase inhibitory activity (Caliper mobility shift)
CDK1/CyclinB = CDK1/CyclinB (Homo sapiens (Human), UniProt P06493); experiment: CDK1/CyclinB kinase inhibitory activity (Caliper mobility shift); settings: read-out: CDK1/Cyclin B1 IC50
CDK6/CyclinD1 = CDK6/CyclinD1 (Homo sapiens (Human), UniProt Q00534); experiment: CDK6/CyclinD1 kinase inhibitory activity (Caliper mobility shift); settings: read-out: CDK6/Cyclin D1 IC50
CDK9/CyclinT1 = CDK9/CyclinT1 (Homo sapiens (Human), UniProt P50750); experiment: CDK9/CyclinT1 kinase inhibitory activity (Caliper mobility shift); settings: read-out: CDK9/Cyclin T1 IC50
Sequence of CDK9/CyclinT1 (P50750 whole entry): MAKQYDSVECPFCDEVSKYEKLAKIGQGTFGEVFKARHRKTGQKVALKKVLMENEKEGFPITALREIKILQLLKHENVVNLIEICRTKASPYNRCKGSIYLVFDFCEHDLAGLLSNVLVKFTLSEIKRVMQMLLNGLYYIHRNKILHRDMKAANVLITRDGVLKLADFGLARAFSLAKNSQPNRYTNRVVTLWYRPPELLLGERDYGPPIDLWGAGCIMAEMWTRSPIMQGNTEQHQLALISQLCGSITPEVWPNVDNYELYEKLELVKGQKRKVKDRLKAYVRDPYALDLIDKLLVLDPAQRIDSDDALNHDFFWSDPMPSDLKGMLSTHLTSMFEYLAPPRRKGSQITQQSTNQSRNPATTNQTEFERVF
Sequence of CDK9/CyclinT1 (O60563 whole entry partner): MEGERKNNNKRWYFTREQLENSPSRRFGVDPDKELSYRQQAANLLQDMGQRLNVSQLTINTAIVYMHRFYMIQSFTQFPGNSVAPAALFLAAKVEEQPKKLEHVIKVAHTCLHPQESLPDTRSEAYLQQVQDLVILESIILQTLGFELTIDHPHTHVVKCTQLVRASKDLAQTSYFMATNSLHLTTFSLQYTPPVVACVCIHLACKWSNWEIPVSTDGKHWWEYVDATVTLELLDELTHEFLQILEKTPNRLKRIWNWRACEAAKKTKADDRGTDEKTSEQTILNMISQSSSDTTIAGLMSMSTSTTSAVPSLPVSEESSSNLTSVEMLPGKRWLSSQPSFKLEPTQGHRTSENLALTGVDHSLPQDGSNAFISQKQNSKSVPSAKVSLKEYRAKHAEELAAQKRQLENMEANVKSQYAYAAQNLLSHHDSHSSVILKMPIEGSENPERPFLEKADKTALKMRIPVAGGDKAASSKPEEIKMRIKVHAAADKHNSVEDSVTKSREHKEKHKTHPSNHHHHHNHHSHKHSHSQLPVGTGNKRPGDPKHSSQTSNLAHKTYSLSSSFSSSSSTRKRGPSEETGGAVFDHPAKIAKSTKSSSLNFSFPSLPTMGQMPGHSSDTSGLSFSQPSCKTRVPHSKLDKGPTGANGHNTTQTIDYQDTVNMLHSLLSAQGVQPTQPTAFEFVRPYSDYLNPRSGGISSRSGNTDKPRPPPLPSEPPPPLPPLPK

Sequence of CDK6/CyclinD1 (Q00534 whole entry): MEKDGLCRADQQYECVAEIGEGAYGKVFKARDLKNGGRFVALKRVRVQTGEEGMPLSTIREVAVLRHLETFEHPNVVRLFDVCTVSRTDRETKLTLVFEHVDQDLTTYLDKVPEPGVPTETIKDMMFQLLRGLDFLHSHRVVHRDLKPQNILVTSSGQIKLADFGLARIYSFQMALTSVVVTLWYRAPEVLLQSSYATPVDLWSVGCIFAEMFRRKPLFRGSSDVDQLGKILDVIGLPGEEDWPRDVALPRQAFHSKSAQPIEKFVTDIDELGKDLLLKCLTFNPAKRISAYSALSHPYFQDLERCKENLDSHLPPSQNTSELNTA
Sequence of CDK6/CyclinD1 (P24385 whole entry partner): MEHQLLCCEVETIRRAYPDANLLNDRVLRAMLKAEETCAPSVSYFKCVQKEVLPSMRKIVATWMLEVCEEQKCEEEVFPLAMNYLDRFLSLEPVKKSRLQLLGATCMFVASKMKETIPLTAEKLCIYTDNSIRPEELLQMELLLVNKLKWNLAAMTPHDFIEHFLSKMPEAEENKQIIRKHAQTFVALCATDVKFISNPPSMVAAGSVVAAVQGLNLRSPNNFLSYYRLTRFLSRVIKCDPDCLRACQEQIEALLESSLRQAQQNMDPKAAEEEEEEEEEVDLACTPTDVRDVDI
Sequence of CDK4/Cyclin D1 (P11802 whole entry): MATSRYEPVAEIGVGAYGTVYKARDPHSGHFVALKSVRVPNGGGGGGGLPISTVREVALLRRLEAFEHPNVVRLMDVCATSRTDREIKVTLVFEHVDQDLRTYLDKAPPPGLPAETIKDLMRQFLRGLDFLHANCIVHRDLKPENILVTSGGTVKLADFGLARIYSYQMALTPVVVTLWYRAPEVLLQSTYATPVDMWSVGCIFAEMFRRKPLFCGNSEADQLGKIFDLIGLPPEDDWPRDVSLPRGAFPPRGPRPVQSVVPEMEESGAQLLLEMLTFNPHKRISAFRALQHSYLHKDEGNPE
Sequence of CDK4/Cyclin D1 (P24385 whole entry partner): as the sequence (P24385 whole entry partner) above
Sequence of CDK7/CyclinH/MAT1 (P50613 whole entry): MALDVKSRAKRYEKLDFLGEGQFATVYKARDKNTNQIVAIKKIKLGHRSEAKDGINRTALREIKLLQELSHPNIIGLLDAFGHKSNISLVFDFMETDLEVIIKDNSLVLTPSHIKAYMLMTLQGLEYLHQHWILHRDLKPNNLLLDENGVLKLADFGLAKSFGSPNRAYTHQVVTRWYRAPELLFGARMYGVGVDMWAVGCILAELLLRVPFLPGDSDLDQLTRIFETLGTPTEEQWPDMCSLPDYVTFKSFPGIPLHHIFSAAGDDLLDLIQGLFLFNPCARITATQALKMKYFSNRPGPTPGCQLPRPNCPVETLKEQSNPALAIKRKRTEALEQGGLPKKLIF
Sequence of CDK7/CyclinH/MAT1 (P51946 whole entry partner): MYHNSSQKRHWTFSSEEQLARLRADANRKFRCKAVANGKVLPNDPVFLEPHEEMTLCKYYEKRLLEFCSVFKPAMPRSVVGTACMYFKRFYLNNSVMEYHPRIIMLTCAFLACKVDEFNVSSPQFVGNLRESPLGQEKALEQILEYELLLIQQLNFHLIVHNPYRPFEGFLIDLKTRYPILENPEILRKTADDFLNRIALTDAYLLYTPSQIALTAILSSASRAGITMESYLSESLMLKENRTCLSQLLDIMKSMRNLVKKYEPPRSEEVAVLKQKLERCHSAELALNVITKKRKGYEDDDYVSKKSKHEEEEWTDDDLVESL
Sequence of CDK7/CyclinH/MAT1 (P51948 whole entry partner): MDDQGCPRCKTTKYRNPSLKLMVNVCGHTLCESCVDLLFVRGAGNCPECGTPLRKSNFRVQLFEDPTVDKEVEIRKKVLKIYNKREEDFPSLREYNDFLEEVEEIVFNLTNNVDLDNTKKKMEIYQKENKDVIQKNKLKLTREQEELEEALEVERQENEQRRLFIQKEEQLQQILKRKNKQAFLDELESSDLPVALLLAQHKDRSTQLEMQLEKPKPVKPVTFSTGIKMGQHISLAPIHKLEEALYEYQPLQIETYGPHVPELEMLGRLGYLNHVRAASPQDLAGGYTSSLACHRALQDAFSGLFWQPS
Sequence of CDK1/CyclinB (P06493 whole entry): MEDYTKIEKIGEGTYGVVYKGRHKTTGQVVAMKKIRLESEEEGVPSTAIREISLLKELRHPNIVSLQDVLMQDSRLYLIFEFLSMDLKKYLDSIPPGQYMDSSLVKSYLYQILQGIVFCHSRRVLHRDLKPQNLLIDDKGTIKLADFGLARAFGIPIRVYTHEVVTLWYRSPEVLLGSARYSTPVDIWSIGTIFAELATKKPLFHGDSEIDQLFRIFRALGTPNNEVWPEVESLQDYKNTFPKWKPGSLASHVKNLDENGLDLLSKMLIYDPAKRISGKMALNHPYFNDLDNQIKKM
Sequence of CDK1/CyclinB (P14635 whole entry partner): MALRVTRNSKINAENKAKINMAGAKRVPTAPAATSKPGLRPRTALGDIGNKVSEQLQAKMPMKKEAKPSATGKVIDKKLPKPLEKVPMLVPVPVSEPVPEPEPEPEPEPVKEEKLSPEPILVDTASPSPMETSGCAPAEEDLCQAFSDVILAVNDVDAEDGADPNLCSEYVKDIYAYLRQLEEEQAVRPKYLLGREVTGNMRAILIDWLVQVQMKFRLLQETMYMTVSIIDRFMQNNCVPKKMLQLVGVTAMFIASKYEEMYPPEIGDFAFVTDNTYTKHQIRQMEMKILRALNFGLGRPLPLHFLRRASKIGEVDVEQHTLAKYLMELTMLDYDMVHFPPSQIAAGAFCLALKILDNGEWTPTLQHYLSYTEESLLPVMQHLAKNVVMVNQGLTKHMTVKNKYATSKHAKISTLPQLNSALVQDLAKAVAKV

Structure (SMILES) | IC50 (CDK2/CyclinE1) | IC50 (CDK7/CyclinH/MAT1) | IC50 (CDK4/Cyclin D1) | IC50 (CDK1/CyclinB) | IC50 (CDK6/CyclinD1) | IC50 (CDK9/CyclinT1)
[2H]C([2H])([2H])NS(=O)(=O)c1ccc(Nc2ncc(C(F)(F)F)c(OC3CCCC3)n2)cc1 [Example 108] | < 10 nM | ≥ 1000 nM | 10 to 100 nM | 10 to 100 nM | 100 to 1000 nM | ≥ 1000 nM
Cn1cc(S(=O)(=O)N2CCC(Nc3ncc(C(F)(F)F)c(OC4CCOCC4(C)O)n3)CC2)cn1 (single isomer, unassigned) [Example 125a] | < 10 nM | < 10 nM | < 10 nM | < 10 nM | < 10 nM | 10 to 100 nM
[2H]C([2H])([2H])NS(=O)(=O)c1ccc(Nc2ncc(CC)c(OC3COCCC3(C)O)n2)cc1 (single isomer, unassigned) [Example 153a] | < 10 nM | 10 to 100 nM | 100 to 1000 nM | 10 to 100 nM | 10 to 100 nM | 10 to 100 nM
CC1(O)CCCC1Oc1nc(Nc2ccc(S(N)(=O)=O)cc2)ncc1C1CC1 (single isomer, unassigned) [Example 154a] | < 10 nM | 10 to 100 nM | 10 to 100 nM | < 10 nM | 10 to 100 nM | 10 to 100 nM
CC1(O)CCCC1Oc1nc(NC2CCN(S(=O)(=O)CC(F)(F)F)CC2)ncc1C#N (single isomer, unassigned) [Example 43a] | < 10 nM | 100 to 1000 nM | < 10 nM | 10 to 100 nM | 10 to 100 nM | 100 to 1000 nM
CNS(=O)(=O)c1ccc(Nc2ncc(C#N)c(OC3CCC[C@H]3O)n2)cc1 (mixture of isomers) [Example 26] | < 10 nM | ≥ 1000 nM | 100 to 1000 nM | 100 to 1000 nM | 100 to 1000 nM | ≥ 1000 nM
Cn1cnc(S(=O)(=O)N2CCC(Nc3ncc(C#N)c(OC4CCCC4(C)O)n3)CC2)c1 (single isomer, unassigned) [Example 50b] | < 10 nM | ≥ 1000 nM | 10 to 100 nM |  | 10 to 100 nM | 
Cn1cnc(S(=O)(=O)N2CCC(Nc3ncc(C#N)c(OC4CCCC4(C)O)n3)CC2)n1 (single isomer, unassigned) [Example 51a] | < 10 nM | 100 to 1000 nM | 10 to 100 nM |  | 10 to 100 nM | 
CNc1cccc(-c2nc(Nc3ccc(S(N)(=O)=O)cc3)ncc2C#N)c1 [Example 97] | 10 to 100 nM | ≥ 1000 nM | 100 to 1000 nM | 100 to 1000 nM | ≥ 1000 nM | 
CC1(O)CCCC1Oc1nc(NC2CCN(S(=O)(=O)C(F)(F)F)CC2)ncc1C#N (single isomer, unassigned) [Example 42a] | < 10 nM | 100 to 1000 nM | 10 to 100 nM |  | 10 to 100 nM | 
CC1(O)CCCC1Oc1nc(NC2CCN(S(=O)(=O)CC3CCOC3)CC2)ncc1C#N (single isomer, unassigned) [Example 40b] | 10 to 100 nM | ≥ 1000 nM | 10 to 100 nM |  | 10 to 100 nM | 
C[C@]1(O)CCC[C@H]1Oc1nc(NC2CCN(S(C)(=O)=O)CC2)ncc1C#N (relative stereo) [Example 5a, cis-4-((2-hydroxy-2-methylcyclopentyl-4,4-d2)oxy)-2-((1-(methylsulfonyl)piperidin-4-yl)amino)pyrimidine-5-carbonitrile] | < 10 nM |  | < 10 nM | 10 to 100 nM | 10 to 100 nM | 100 to 1000 nM
CC1(O)CCCC1Oc1nc(NC2CCN(S(=O)(=O)CC(F)(F)F)CC2)ncc1C#N (single isomer, unassigned) [Example 43b] | 10 to 100 nM | ≥ 1000 nM | 10 to 100 nM |  | 10 to 100 nM | 
C[C@]1(O)CCC[C@H]1Oc1nc(NC2CCN(S(C)(=O)=O)CC2)ncc1C#N (relative stereo) [Example 5b, cis-4-((2-hydroxy-2-methylcyclopentyl-4,4-d2)oxy)-2-((1-(methylsulfonyl)piperidin-4-yl)amino)pyrimidine-5-carbonitrile] | 10 to 100 nM |  | 100 to 1000 nM | 100 to 1000 nM | 10 to 100 nM | ≥ 1000 nM
C[C@]1(O)COC[C@H]1Oc1nc(NC2CCN(S(C)(=O)=O)CC2)ncc1C(F)(F)F (relative stereo) [Example 104b, cis-3-methyl-4-((2-((1-(methylsulfonyl)piperidin-4-yl)amino)-5-(trifluoromethyl)pyrimidin-4-yl)oxy)tetrahydrofuran-3-ol] | 10 to 100 nM |  | 100 to 1000 nM | 100 to 1000 nM | 100 to 1000 nM | ≥ 1000 nM
[2H]C([2H])([2H])NS(=O)(=O)c1ccc(Nc2ncc(C(F)(F)F)c(OC3CCOCCC3O)n2)cc1 (single isomer, unassigned) [Example 102a, 4-((4-((5-hydroxyoxepan-4-yl)oxy)-5-(trifluoromethyl)pyrimidin-2-yl)amino)-N-(methyl-d3)benzenesulfonamide] | < 10 nM | ≥ 1000 nM | ≥ 1000 nM | 100 to 1000 nM | ≥ 1000 nM | 

Structure (SMILES) | IC50 (CDK2/CyclinE1) | IC50 (CDK7/CyclinH/MAT1) | IC50 (CDK4/Cyclin D1) | IC50 (CDK1/CyclinB) | IC50 (CDK6/CyclinD1) | IC50 (CDK9/CyclinT1)
[2H]C([2H])([2H])NS(=O)(=O)c1ccc(Nc2ncc(C(F)(F)F)c(O[C@H]3CCCOC[C@H]3O)n2)cc1 (single isomer, unassigned) [Example 103b, cis-4-((4-((3-hydroxyoxepan-4-yl)oxy)-5-(trifluoromethyl)pyrimidin-2-yl)amino)-N-(methyl-d3)benzenesulfonamide] |  | ≥ 1000 nM | ≥ 1000 nM | 100 to 1000 nM |  | 
Cn1cc(S(=O)(=O)N2CCC(Nc3ncc(C#N)c(O[C@@H]4CCC(F)(F)C[C@]4(C)O)n3)CC2)cn1 (relative stereo) [Example 7b, cis-4-((4,4-difluoro-2-hydroxy-2-methylcyclohexyl)oxy)-2-((1-((1-methyl-1H-pyrazol-4-yl)sulfonyl)piperidin-4-yl)amino)pyrimidine-5-carbonitrile] | 10 to 100 nM | ≥ 1000 nM | 100 to 1000 nM |  | 100 to 1000 nM | 
N#Cc1cnc(Nc2ccc(S(N)(=O)=O)cc2)nc1-c1cccc(F)c1 [Example 95] | 10 to 100 nM | ≥ 1000 nM | 100 to 1000 nM | 10 to 100 nM | ≥ 1000 nM | 
C[C@]1(O)CC(F)(F)C[C@H]1Oc1nc(NC2CCN(S(C)(=O)=O)CC2)ncc1C#N (relative stereo) [Example 4b, cis-4-((4,4-difluoro-2-hydroxy-2-methylcyclopentyl)oxy)-2-((1-(methylsulfonyl)piperidin-4-yl)amino)pyrimidine-5-carbonitrile] | 10 to 100 nM |  | 100 to 1000 nM | 100 to 1000 nM | 10 to 100 nM | ≥ 1000 nM
CNS(=O)(=O)c1ccc(Nc2ncc(C(F)(F)F)c(OC3CCOCCC3O)n2)cc1 (single isomer, unassigned) [Example 102c, 4-((4-((5-hydroxyoxepan-4-yl)oxy)-5-(trifluoromethyl)pyrimidin-2-yl)amino)-N-(methyl-d3)benzenesulfonamide] | < 10 nM |  | ≥ 1000 nM |  |  | 
CC1(O)COCCC1Oc1nc(NC2CCN(S(C)(=O)=O)CC2)ncc1C(F)(F)F (single isomer, unassigned) [Example 124b] | 100 to 1000 nM |  | 100 to 1000 nM | ≥ 1000 nM | 100 to 1000 nM | ≥ 1000 nM
Cn1cc(S(=O)(=O)N2CCC(Nc3ncc(C(F)(F)F)c(OC4CCOCC4(C)O)n3)CC2)cn1 (single isomer, unassigned) [Example 125b] | 10 to 100 nM | 100 to 1000 nM | 100 to 1000 nM |  | 100 to 1000 nM | 
CC1(O)COCCC1Oc1nc(NC2CCN(S(C)(=O)=O)CC2)ncc1C#N (single isomer, unassigned) [Example 45b] | 100 to 1000 nM |  | 100 to 1000 nM | ≥ 1000 nM | 100 to 1000 nM | ≥ 1000 nM
CC1(O)CC(F)(F)CC1Oc1nc(NC2CCN(S(=O)(=O)CC3CC3)CC2)ncc1C#N (single isomer, unassigned) [Example 44a] | 10 to 100 nM |  | 100 to 1000 nM | 100 to 1000 nM | 10 to 100 nM | ≥ 1000 nM
Cn1cnc(S(=O)(=O)N2CCC(Nc3ncc(C#N)c(OC4CCCC4(C)O)n3)CC2)n1 (single isomer, unassigned) [Example 51b] | 10 to 100 nM | ≥ 1000 nM | 100 to 1000 nM |  | 100 to 1000 nM | 
CO[C@H]1C[C@](C)(COc2nc(NC3CCN(S(=O)(=O)c4cnn(C)c4)CC3)ncc2C#N)C1 [Example 64a] | < 10 nM | 100 to 1000 nM | 10 to 100 nM |  | 10 to 100 nM | 
CC1(O)CCCC1Oc1nc(NC2CCN(S(=O)(=O)C(F)(F)F)CC2)ncc1C#N (single isomer, unassigned) [Example 42b] | 10 to 100 nM | ≥ 1000 nM | 100 to 1000 nM |  | 100 to 1000 nM | 
Cn1cc(S(=O)(=O)N2CCC(Nc3ncc(C#N)c(OC4CCCC4(C)O)n3)CC2)cn1 (single isomer, unassigned) [Example 48b] | < 10 nM |  | 10 to 100 nM | 10 to 100 nM | 10 to 100 nM | ≥ 1000 nM
CC1(O)CCC(F)(F)CC1Oc1nc(NC2CCN(S(C)(=O)=O)CC2)ncc1C#N (single isomer, unassigned) [Example 46a] | 100 to 1000 nM |  | 100 to 1000 nM |  | 100 to 1000 nM | 
CNS(=O)(=O)c1ccc(Nc2ncc(C(F)(F)F)c(O[C@H]3CCOC[C@H]3O)n2)c(F)c1 (single isomer, unassigned) [Example 101b, cis-3-fluoro-4-((4-((3-hydroxytetrahydro-2H-pyran-4-yl)oxy)-5-(trifluoromethyl)pyrimidin-2-yl)amino)-N-(methyl-d3)benzenesulfonamide] |  |  | ≥ 1000 nM |  | ≥ 1000 nM | 
